BindingDB's records for doi:10.1107/S0907444905022638 (University of California San Francisco, 2005)

Legend:
Test in all cases: Thymidylate Synthase (TS) Assay
Details in all cases: pH 7.4; 20 °C
Thymidylate synthase [1] = target: T1, Thymidylate synthase (Cryptococcus neoformans var. neoformans serotype D (strain B-3501A), UniProt P0CS13)
T1 sequence (P0CS13 whole entry): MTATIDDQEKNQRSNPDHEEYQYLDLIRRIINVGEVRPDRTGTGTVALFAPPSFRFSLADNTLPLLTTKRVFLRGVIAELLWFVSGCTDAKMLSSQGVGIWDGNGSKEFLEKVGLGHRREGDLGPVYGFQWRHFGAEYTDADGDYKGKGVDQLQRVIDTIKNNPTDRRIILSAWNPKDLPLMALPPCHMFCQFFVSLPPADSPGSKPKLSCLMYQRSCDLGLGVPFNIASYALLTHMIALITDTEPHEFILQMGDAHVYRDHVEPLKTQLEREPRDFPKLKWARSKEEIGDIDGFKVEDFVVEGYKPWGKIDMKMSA
Method: (§1) TS was assayed spectrophotometrically in the reaction buffer solution containing (6R, 6S)-5, 10-CH2H4folate. The reaction was initiated by the addition of an amount of enzyme yielding a change in absorbance at 340 nm of 0.016/min in the absence of inhibitor. Ki values were obtained from the linear least-squares fit of the residual activity as a function of inhibitor concentration, using suitable equations for competitive inhibition.

Thymidylate synthase [2] = target: Thymidylate synthase (Escherichia coli (strain K12), UniProt P0A884)
Method: as §1

Thymidylate synthase [3] = target: Thymidylate synthase (Homo sapiens, UniProt P04818)
Method: as §1

Thymidylate synthase [4] = target: T2, Thymidylate synthase (Lacticaseibacillus casei, UniProt P00469)
T2 sequence (P00469 whole entry): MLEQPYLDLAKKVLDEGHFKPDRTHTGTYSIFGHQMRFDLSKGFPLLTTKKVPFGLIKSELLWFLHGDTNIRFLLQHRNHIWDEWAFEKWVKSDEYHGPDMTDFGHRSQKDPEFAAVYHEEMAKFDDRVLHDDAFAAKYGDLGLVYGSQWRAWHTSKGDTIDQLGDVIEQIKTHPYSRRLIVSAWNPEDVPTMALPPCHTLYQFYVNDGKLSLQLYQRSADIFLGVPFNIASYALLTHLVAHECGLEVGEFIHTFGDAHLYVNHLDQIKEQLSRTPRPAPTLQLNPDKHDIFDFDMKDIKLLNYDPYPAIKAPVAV
Method: as §1

Thymidylate synthase [5] = target: T3, Thymidylate synthase (Pneumocystis carinii, UniProt P13100)
T3 sequence (P13100 whole entry): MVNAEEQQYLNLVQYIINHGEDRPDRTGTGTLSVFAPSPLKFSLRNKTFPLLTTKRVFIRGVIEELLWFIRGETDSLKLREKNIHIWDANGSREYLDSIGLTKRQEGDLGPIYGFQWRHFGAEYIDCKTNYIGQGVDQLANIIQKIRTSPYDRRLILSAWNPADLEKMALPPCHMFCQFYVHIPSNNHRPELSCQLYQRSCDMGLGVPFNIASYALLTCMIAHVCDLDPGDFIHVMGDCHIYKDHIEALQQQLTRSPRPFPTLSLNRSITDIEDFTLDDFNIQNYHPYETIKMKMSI
Method: as §1

Sequence of Thymidylate synthase (Homo sapiens, UniProt P04818) (P04818 whole entry): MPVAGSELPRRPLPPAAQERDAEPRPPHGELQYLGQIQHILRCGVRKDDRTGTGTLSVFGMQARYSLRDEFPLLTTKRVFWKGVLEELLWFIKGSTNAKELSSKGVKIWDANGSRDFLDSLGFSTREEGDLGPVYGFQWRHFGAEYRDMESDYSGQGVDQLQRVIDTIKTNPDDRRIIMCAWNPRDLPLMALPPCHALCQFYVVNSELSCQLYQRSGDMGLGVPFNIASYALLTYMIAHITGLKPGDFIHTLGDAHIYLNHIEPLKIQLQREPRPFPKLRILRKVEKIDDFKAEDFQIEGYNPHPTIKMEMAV
Sequence of Thymidylate synthase (Escherichia coli (strain K12), UniProt P0A884) (P0A884 whole entry): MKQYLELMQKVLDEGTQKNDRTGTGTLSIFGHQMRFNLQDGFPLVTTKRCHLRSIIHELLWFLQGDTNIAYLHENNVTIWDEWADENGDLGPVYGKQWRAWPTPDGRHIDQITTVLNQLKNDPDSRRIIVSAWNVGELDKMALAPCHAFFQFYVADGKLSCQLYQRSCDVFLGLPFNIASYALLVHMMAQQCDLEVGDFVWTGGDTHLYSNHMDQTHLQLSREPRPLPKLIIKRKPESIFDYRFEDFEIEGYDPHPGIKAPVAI

O=C1OC(c2ccc(O)c(Br)c2)(c2ccc(O)c(Br)c2)c2cccc3c(Cl)ccc1c23 [4,4-bis(3-bromo-4-hydroxyphenyl)-10-chloro-3-oxatricyclo[7.3.1.0^{5,13}]trideca-1(12),5(13),6,8,10-pentaen-2-one] showed a Ki (Thymidylate synthase [1]) of 4.1 µM, a Ki (Thymidylate synthase [2]) of 4.1 µM and a Ki (Thymidylate synthase [3]) greater than 245 µM. It also gave a Ki (Thymidylate synthase [4]) of 0.8 µM and a Ki (Thymidylate synthase [5]) of 28 µM.
